This is an account of results in paper PMC9916969 (International Journal of Molecular Sciences, 2023).

In one series the target is β-amyloid (1–42) (Aβ42) (Homo sapiens, UniProt P05067). Nature of the series: Inhibition of Aβ42 self-aggregation (thioflavin T). The class given is biochemical. The settings on record: Aβ42 50 µM; compound 100 µM; 24 h, 37 °C; thioflavin T; read-out: Inhibition of Aβ42 Self-Aggregation. The essentials:
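Aβ42 (HFIP-pretreated, 500 μM DMSO stock) at 50 μM final in 215 mM Na-phosphate pH 8.0 was incubated 24 h at 37 °C without stirring, with or without compounds at 100 µM. Then ThT was added (4 μM final, glycine-NaOH pH 8.5) and fluorescence read at 440/485 nm, in triplicate.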

A short description of a further series: in vitro. The class given is cell-based. Particulars: mouse. As to the method: […]. Accordingly, in the present work, we paid special attention to the study of the cytotoxic activity of compounds on primary cultures of mouse hepatocytes using standard MTT methodology.
The cytotoxicity of the compounds was evaluated using a primary culture of mouse hepatocytes isolated at the Center for Biotechnology and Bioengineering, Ural Federal University, Ekaterinburg, Russia, according to the standard method. Cells were seeded in 96-well plates in the inoculum dose of 1 × 10^4 cells/mL and cultured for 24 h in Dulbecco’s Modified Eagle Medium (DMEM), with 1% (w/v) glutamine in the presence of 10% (v/v) fetal bovine serum and gentamicin (50 mg/L) at 37 °C, with a humidified atmosphere of 5% (v/v) CO2. Cell viability was assessed using the standard MTT assay. The compounds were dissolved in DMSO and then in a nutrient medium, after which they were added to the wells with cells at final concentrations of 10^−7, 10^−6, 10^−5, and 10^−4 M. Hepatocytes were exposed to test compounds for 24 h at 37 °C, 95% relative humidity and 5% (v/v) CO2 atmosphere. After incubation, the medium was replaced with 100 μL of fresh medium containing MTT (0.5 mg/mL). The plates were then incubated at 37°C in a CO2 incubator for 2 h. Then the medium with MTT was removed and DMSO was added to dissolve the formazan crystals.
The results of the MTT assay were evaluated on a Tecan Infinite M200 PRO (Tecan Austria GmbH, Grödig, Austria) plate spectrophotometer at 570 nm by comparing the optical density of a formazan solution in the assay and control wells. The cell viability was expressed as the percentage of untreated control. The results were obtained from three independent experiments performed in six replicates. The IC50 (μM) values were calculated by the AAT Bioquest-calculator: (https://www.aatbio.com/tools/ic50-calculator, accessed on 1 December 2022) and expressed as a mean ± standard error of the mean (SEM). Statistical analysis was carried out using Microsoft Excel 2007 (Microsoft Corporation, Redmond, WA, USA) and Statistica 2009 (Tulsa, OK, USA) programs.

Another series is described as follows: FRAP assay. Particulars: Trolox equivalents; 60 min, 37 °C; n.a. = not active.
Series [1] is described as follows: Metal chelation by UV-Vis spectroscopy, Zn2+. The settings on record: ethanol, 25 °C; compound and metal 40 μM; difference spectra; two bands per compound.
Series [2] is described as follows: Metal chelation by UV-Vis spectroscopy, Cu2+. The settings on record: ethanol, 25 °C; compound and metal 40 μM; difference spectra; two bands per compound.
The next series addresses T1, AChE (Homo sapiens, UniProt P22303).
T1 construct: human erythrocyte AChE, equine serum BChE, and porcine liver CES were used; purchased Sigma-Aldrich; host or cells: human erythrocytes (tissue-derived)
In words: Kinetic study of AChE inhibition (Lineweaver-Burk). The class given is biochemical. The settings on record: for αKi (non-competitive inhibition constant), AChE: mixed-type inhibition, mean ± SEM; for Ki: read-out: Ki (competitive inhibition constant), AChE. On the procedure: (§1) We assessed the mechanisms of AChE and BChE inhibition by performing a thorough analysis of enzyme kinetics. After a 5 min incubation at 25 °C (for temperature equilibration) with three increasing concentrations of inhibitor and six decreasing substrate concentrations, the residual enzyme activity was measured as described above for enzymatic assays.

The next series concerns the target T2, eqBChE (Equus caballus, UniProt P81908).
T2 construct: human erythrocyte AChE, equine serum BChE, and porcine liver CES were used; purchased Sigma-Aldrich; host or cells: equine serum (tissue-derived)
In words: Kinetic study of BChE inhibition (Lineweaver-Burk). The class given is biochemical. Particulars: for αKi (non-competitive inhibition constant), eqBChE: mixed-type inhibition, mean ± SEM; for Ki: read-out: Ki (competitive inhibition constant), eqBChE. As to the method:
Similar results were obtained for other tested compounds (Figures S61 and S62). The obtained values of inhibition constants (Ki = competitive component and αKi = non-competitive component) are shown in Table 2.
as §1

T2 sequence (P81908 whole entry): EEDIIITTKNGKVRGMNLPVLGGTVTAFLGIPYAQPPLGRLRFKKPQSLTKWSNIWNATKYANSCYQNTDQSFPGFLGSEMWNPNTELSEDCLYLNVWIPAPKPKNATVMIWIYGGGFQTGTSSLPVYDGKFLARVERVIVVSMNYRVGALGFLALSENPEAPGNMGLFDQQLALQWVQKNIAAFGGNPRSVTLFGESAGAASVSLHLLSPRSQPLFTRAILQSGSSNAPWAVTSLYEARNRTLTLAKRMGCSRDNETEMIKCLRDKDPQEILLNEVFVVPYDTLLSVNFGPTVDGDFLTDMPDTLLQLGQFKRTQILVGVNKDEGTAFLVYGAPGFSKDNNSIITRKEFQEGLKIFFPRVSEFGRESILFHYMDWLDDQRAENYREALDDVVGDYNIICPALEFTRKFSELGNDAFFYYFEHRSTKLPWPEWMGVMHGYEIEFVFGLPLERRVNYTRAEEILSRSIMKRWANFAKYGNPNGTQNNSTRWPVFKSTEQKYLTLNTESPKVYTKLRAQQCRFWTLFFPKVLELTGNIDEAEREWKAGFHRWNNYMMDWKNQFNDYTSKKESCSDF
Chain of β-amyloid (1–42) (Aβ42) (P05067 672-713 limits assumed): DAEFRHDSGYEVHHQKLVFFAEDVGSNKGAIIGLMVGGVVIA
T1 sequence (P22303 32-617 isoform P22303-2 limits assumed): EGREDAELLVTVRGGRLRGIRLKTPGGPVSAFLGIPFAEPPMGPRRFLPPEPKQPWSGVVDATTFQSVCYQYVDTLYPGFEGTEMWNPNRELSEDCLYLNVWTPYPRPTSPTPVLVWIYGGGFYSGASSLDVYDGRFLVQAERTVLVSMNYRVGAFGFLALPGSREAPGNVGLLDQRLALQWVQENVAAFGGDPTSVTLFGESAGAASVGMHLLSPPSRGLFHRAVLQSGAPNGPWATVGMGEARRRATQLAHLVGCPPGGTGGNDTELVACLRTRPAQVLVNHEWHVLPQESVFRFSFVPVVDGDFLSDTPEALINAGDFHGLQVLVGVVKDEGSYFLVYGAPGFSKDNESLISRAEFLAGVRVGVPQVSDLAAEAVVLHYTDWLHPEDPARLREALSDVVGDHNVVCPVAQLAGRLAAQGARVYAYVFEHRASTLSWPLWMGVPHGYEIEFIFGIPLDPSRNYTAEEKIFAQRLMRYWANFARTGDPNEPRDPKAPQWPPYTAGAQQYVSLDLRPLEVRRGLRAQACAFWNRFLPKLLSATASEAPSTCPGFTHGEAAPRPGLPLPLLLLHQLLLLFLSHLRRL

Take `O=C(NCCCCCCNc1c2c(nc3ccccc13)CCCC2)c1ccccc1O` [5b]: the inhibition (as a rule, the percentage by which the read-out fell short of the control) at 100 µM on β-amyloid (1–42) (Aβ42) was 41.5 ± 2.9%. Besides, the IC50 (usually the concentration needed to halve the response being measured) at 24 h in “in vitro” was 4.89 ± 0.08 µM.
`O=C(NCCCCCCNc1c2c(nc3ccccc13)CCCC2)c1cc(F)c(F)cc1O` [7b]: the inhibition at 100 µM at β-amyloid (1–42) (Aβ42) was found to be 24.1 ± 2.1%. Besides, in “FRAP assay”, the “FRAP, TE” value was found to be 0.03. Also, the concentration for half-maximal inhibition (IC50) at 24 h in the series “in vitro” turned out to be 15.16 ± 0.09 µM. Also, the “Shift of Absorbance, Zn(II)” value in series [1] came out at 352 nm. Moreover, the “Shift of Absorbance, Cu(II)” value in series [2] came out at 253 nm.
`O=C(NCCCCCCCCNc1c2c(nc3ccccc13)CCCC2)c1cc(F)c(F)cc1O` [7c]: the inhibition at 100 µM at β-amyloid (1–42) (Aβ42) is 37.2 ± 2.9%. In “FRAP assay”, the “FRAP, TE” value was found to be 0.06. Also, on AChE, the “αKi (non-competitive inhibition constant), AChE” value stood at 0.134 ± 0.009 µM and the Ki (commonly the equilibrium dissociation constant of an inhibitor or competing ligand from its target) was 0.125 ± 0.003 µM. On eqBChE, the “αKi (non-competitive inhibition constant), eqBChE” value is 0.0243 ± 0.0001 µM and the Ki was found to be 0.0173 ± 0.0006 µM.
For `Oc1ccccc1/C=N/CCCCCCCCNc1c2c(nc3ccccc13)CCCC2` [10c], the inhibition at 100 µM at β-amyloid (1–42) (Aβ42) was determined as 80.1 ± 5.6%. In addition, the “Type of AChE inhibition” value on AChE (Lineweaver–Burk analysis) is “mixed type of inhibition”. On AChE, the “αKi (non-competitive inhibition constant), AChE” value was 0.0644 ± 0.0040 µM and the inhibition constant Ki was 0.0299 ± 0.0021 µM. The same compound had an IC50 at 24 h in “in vitro” of 5.87 ± 0.14 µM. Further, the “Type of BChE inhibition” value on eqBChE (Lineweaver–Burk analysis) is “mixed type of inhibition”. Also, at eqBChE, the “αKi (non-competitive inhibition constant), eqBChE” value was 0.0152 ± 0.0009 µM and the inhibitory constant (Ki) came out at 0.0084 ± 0.0006 µM.
